From US20230382940A1, “ANTIVIRAL COMPOUNDS AND METHODS OF MAKING AND USING THE SAME” (Gilead Sciences, Inc., priority 2022, published 2023)

Key:
[1] = test system: Human Rhinovirus 14 (HRV14); assay: H1-HeLa HRV-CTG 384-well assay, HRV14, Example X; format: cell-based; settings: Rhinovirus B, 96 h; H1-HeLa cells, HRV14 MOI 1.0, 4 days, Celltiter-Glo; read-out: EC50 H1-HeLa_HRV 14_HRV-CTG 384-well Assay (per Ex. X)
How it was run: (§1)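 H1-HeLa cells (5,000/well, DMEM 2% FBS) infected with HRV1B, HRV14 or HRV16 at MOI 0.5, 1.0 and 0.25 respectively, with 10-point 1:3 compound dilutions; 4 days at 37 °C. Viability by CellTiter-Glo luminescence, normalized to rupintrivir and DMSO controls; EC50 by non-linear regression.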

[2] = test system: Human Rhinovirus 1B (HRV1B); assay: H1-HeLa HRV-CTG 384-well assay, HRV1B, Example X; format: cell-based; settings: Rhinovirus A, 96 h; H1-HeLa cells, HRV1B MOI 0.5, 4 days, Celltiter-Glo; read-out: EC50 H1-HeLa_HRV 1B_HRV-CTG 384-well Assay (per Ex. X)
How it was run: as §1

[3] = GI S9 stability, rat, Example Y; format: in vitro ADME; settings: pooled intestinal S9 fractions; rat intestinal S9, 1.0 mg/mL protein, 2 μM compound, pH 7.4; read-out: GIS9 Rat T½ (per Ex. Y)
Experimental: (§2) Example Y: GI S9 Stability Data
(§3) Stock solutions of test compounds in dimethyl sulfoxide (DMSO) having a final concentration of 10 mM were prepared and used in all experiments. Sekisui XenoTech (Kansas City, KS) provided pooled intestinal S9 fractions. All other chemicals were purchased from Sigma-Aldrich (St. Louis, MO) or VWR (West Chester, PA). Internal Standard/Quench (IS/Q) used to stop reactions was 100 nM labetalol in (by volume) methanol (10%) and acetonitrile (90%).
(§4) Stability in Intestinal S9 Fractions: Duplicate aliquots of test compound or positive control substrate were added to S9 stock diluted with phosphate buffered saline (137 mM NaCl, 2.7 mM KCl, 10 mM phosphate buffer), pH 7.4, to obtain a protein concentration of 1.0 mg/mL. The metabolic reactions were initiated by the addition of the substrates to the S9 reaction mixture to a final concentration of 2 μM. At 0, 10, 20, 30, 60 and 120 min, 25 μL aliquots of the reaction mixture were transferred to plates containing 225 μl of IS/Q solution. After quenching, the plates were centrifuged at 3000×g for 30 minutes. 150 μL aliquots of each supernatant were dried down then reconstituted with 300 μL water. Aliquots (10 μL) of the prepared samples were analyzed on a Thermo Q-Exactive mass spectrometer as described below.
(§5) Liquid Chromatography—Mass Spectrometry: Quantification of test compounds and control substrate was performed by analyte/internal standard peak area ratio (PAR) values measured on a Thermo Q-Exactive mass spectrometer coupled to a Dionex UltiMate 3000 HPLC with a Leap Technologies HTC PAL autosampler. The column used for analysis was a Waters Acquity BEH C18 (1.7 μm particle size, 2.1×50 mm). Mobile phase A consisted of 0.1% (v/v) formic acid in water. Mobile phase B consisted of 0.1% (v/v) formic acid in acetonitrile. Elution of analytes was achieved by a series of linear gradients varying the proportions of A and B. The mass spectrometer was calibrated on a weekly basis and mass tolerance of 5 ppm was used.
(§6) Metabolic stabilities in S9 fractions were determined by measuring the rates of disappearance of test compound and positive control substrate.
(§7) Data (% of substrate remaining) were plotted on a semi-log scale and fitted using an exponential decline model:
(§8) Ct=C0×e^−ln2/T1/2×t • Where Ct—% of substrate remaining at time=t; C0—% of substrate remaining at time=0; t—time; T1/2—half-life. • The Half-life (T1/2) is determined by the following equation: […]
(§9) Assuming a first-order reaction, the slope (k) is extrapolated from the aforementioned plotted data.

[4] = GI S9 stability, human, Example Y; format: in vitro ADME; settings: pooled intestinal S9 fractions; human intestinal S9, 1.0 mg/mL protein, 2 μM compound, pH 7.4; read-out: GIS9 Human T½ (per Ex. Y)
Experimental: as §2, §3, §4, §5, §6, §7, §8, §9

SMILES	EC50 [1] [µM]	EC50 [2] [µM]	half-life at 2 μM [3] [min]	half-life at 2 μM [4] [min]
N#C[C@]1(COC(=O)OCc2ccccc2)O[C@@H](c2ccc3c(N)ncnn23)[C@H](O)[C@@H]1O [Compound 29, ((2R,3S,4R,5S)-5-(4-aminopyrrolo[2,1-f][1,2,4]triazin-7-yl)-2-cyano-3,4-dihydroxytetrahydrofuran-2-yl)methyl benzyl carbonate]	8.06	3.26	3	15
N#C[C@]1(COC(=O)OC2CC3(CCC3)C2)O[C@@H](c2ccc3c(N)ncnn23)[C@H](O)[C@@H]1O [Compound 36, ((2R,3S,4R,5S)-5-(4-aminopyrrolo[2,1-f][1,2,4]triazin-7-yl)-2-cyano-3,4-dihydroxytetrahydrofuran-2-yl)methyl spiro[3.3]heptan-2-yl carbonate]	10.6	5.93	3	14
N#C[C@]1(COC(=O)OCCc2ccccc2)O[C@@H](c2ccc3c(N)ncnn23)[C@H](O)[C@@H]1O [Compound 5, ((2R,3S,4R,5S)-5-(4-aminopyrrolo[2,1-f][1,2,4]triazin-7-yl)-2-cyano-3,4-dihydroxytetrahydrofuran-2-yl)methyl phenethyl carbonate]	9.75	3.35	4	44
N#C[C@]1(COC(=O)OCC2CC2)O[C@@H](c2ccc3c(N)ncnn23)[C@H](O)[C@@H]1O [Compound 32, ((2R,3S,4R,5S)-5-(4-aminopyrrolo[2,1-f][1,2,4]triazin-7-yl)-2-cyano-3,4-dihydroxytetrahydrofuran-2-yl)methyl (cyclopropylmethyl) carbonate]	11.5	5.69	8	33
CCCCCOC(=O)OC[C@@]1(C#N)O[C@@H](c2ccc3c(N)ncnn23)[C@H](O)[C@@H]1O [Compound 20, ((2R,3S,4R,5S)-5-(4-aminopyrrolo[2,1-f][1,2,4]triazin-7-yl)-2-cyano-3,4-dihydroxytetrahydrofuran-2-yl)methyl pentyl carbonate]	12.3	4.69	3	16
CC(C)COC(=O)OC[C@@]1(C#N)O[C@@H](c2ccc3c(N)ncnn23)[C@@H]2OC(=O)O[C@@H]21 [Compound 15, ((3aS,4R,6S,6aS)-6-(4-aminopyrrolo[2,1-f][1,2,4]triazin-7-yl)-4-cyano-2-oxotetrahydrofuro[3,4-d][1,3]dioxol-4-yl)methyl isobutyl carbonate]	7.55	7.05	2	1
CC(C)(C)CCOC(=O)OC[C@@]1(C#N)O[C@@H](c2ccc3c(N)ncnn23)[C@H](O)[C@@H]1O [Compound 35, ((2R,3S,4R,5S)-5-(4-aminopyrrolo[2,1-f][1,2,4]triazin-7-yl)-2-cyano-3,4-dihydroxytetrahydrofuran-2-yl)methyl (3,3-dimethylbutyl) carbonate]	12.2	8.63	4	19
CC(C)(C)COC(=O)OC[C@@]1(C#N)O[C@@H](c2ccc3c(N)ncnn23)[C@H](O)[C@@H]1O [Compound 2, ((2R,3S,4R,5S)-5-(4-aminopyrrolo[2,1-f][1,2,4]triazin-7-yl)-2-cyano-3,4-dihydroxytetrahydrofuran-2-yl)methyl neopentyl carbonate]	7.66	7	6	23
N#C[C@]1(COC(=O)OC2CCCC2)O[C@@H](c2ccc3c(N)ncnn23)[C@H](O)[C@@H]1O [Compound 1, ((2R,3S,4R,5S)-5-(4-aminopyrrolo[2,1-f][1,2,4]triazin-7-yl)-2-cyano-3,4-dihydroxytetrahydrofuran-2-yl)methyl cyclopentyl carbonate]	19.1	8.65	6	31
